Measurements published in patent US9868720B2 (Genentech, Inc., priority 2013, dated 2018).

Biological target: DLK kinase (N-terminally GST-tagged DLK, catalytic domain amino acid 1-520) (Homo sapiens (Human), UniProt Q12852)
Experiment: DLK TR-FRET assay
Type: biochemical
Conditions: 30 μM ATP, MKK4 K131M substrate, read-out: DLK HTRF (Ki)
Protocol: DLK TR-FRET assay: DLK kinase reactions (20 μL) containing 5 nM N-terminally GST-tagged DLK (catalytic domain amino acid 1-520) (Carna Bioscience), 40 nM N-terminally HIS-tagged MKK4 K131M substrate, and 30 μM ATP in kinase reaction buffer (50 mM HEPES, pH 7.5, 0.01% Triton X-100, 0.01% Bovine γ-Globulins, 2 mM DTT, 10 mM MgCl2 and 1 mM EGTA), and testing compound 1:3 serial diluted starting at 20 uM were incubated at ambient temperature for 60 minutes in 384 well OptiPlate (Perkin Elmer). To quench kinase reactions and detect phosphorylated MKK4, 15 μL of TR-FRET antibody mixture containing 2 nM anti-phosphorylated MKK4 labeled with Europium cryptate (Cisbio) and 23 nM anti-HIS labeled with D2 (Cisbio) in detection buffer (25 mM Tris pH 7.5, 100 mM NaCl, 100 mM EDTA, 0.01% Tween-20, and 200 mM KF) was added to the reaction mixture. The detection mixture was incubated for 3 hours at ambient temperature and the TR-FRET was detected with an EnVision multilabel plate reader (Perkin-Elmer) using the LANCE/DELFIA Dual Enh label from Perkin-Elmer (excitation filter: UV2 (TRF) 320 and emission filters: APC 665 and Europium 615).

Chain of DLK kinase (N-terminally GST-tagged DLK, catalytic domain amino acid 1-520) (Q12852 1-520): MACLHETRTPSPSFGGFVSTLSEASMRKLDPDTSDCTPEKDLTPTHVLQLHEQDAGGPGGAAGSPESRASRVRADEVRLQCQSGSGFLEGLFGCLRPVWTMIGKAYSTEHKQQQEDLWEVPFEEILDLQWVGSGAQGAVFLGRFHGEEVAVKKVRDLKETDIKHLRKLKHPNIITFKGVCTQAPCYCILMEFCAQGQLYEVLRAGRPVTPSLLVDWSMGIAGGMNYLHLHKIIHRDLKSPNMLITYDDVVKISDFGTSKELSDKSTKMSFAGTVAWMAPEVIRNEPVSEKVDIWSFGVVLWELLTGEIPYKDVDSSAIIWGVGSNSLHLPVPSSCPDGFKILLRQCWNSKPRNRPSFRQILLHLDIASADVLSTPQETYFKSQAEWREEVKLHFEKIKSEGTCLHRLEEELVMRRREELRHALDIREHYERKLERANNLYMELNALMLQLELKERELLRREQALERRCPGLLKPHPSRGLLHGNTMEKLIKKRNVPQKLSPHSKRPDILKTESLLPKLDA

Compound	Ki
FC(F)(F)c1ccnc(Nc2cc(C3CCOCC3)nc(N3C4CCC3COC4)n2)c1 [Example 251, [2-(3-Oxa-8-aza-bicyclo-[3.2.1]oct-8-yl)-6-(tetrahydro-pyran-4-yl)-pyrimidin-4-yl]-(4-trifluoro-methyl-pyridin-2-yl)-amine]	183 nM
FC(F)(F)c1ccnc(Nc2cc(C3CCOCC3)nc(N3CCc4nc[nH]c4C3)n2)c1 [Example 252, [2-(3,4,6,7-Tetrahydro-imidazo[4,5-c]pyridin-5-yl)-6-(tetrahydro-pyran-4-yl)-pyrimidin-4-yl]-(4-trifluoromethyl-pyridin-2-yl)-amine]	43.5 nM
FC(F)(F)c1ccnc(Nc2cc(C3CCOCC3)nc(N3CCn4ccnc4C3)n2)c1 [Example 253, [2-(5,6-Dihydro-8H-imidazo[1,2-a]pyrazin-7-yl)-6-(tetrahydro-pyran-4-yl)-pyrimidin-4-yl]-(4-trifluoromethyl-pyridin-2-yl)-amine]	87.7 nM
O=C(C1CN(c2nc(Nc3cc(C(F)(F)F)ccn3)cc(C3CCOCC3)n2)C1)N1CCOCC1 [Example 260, Morpholin-4-yl-{1-[4-(tetrahydro-pyran-4-yl)-6-(4-trifluoromethyl-pyridin-2-ylamino)-pyrimidin-2-yl]-azetidin-3-yl}-methanone]	347 nM
O=C(C1CCCO1)N1CCC(c2cc(Nc3cc(C(F)(F)F)ccn3)nc(N3CC(F)(F)C3)n2)C1 (centres unmarked) [Example 265, {3-[2-(3,3-Difluoro-azetidin-1-yl)-6-(4-trifluoro-methyl-pyridin-2-ylamino)-pyrimidin-4-yl]-pyrrolidin-1-yl}-(tetrahydro-furan-2-yl)-methanone]	159 nM
CN1CCC(c2cc(Nc3cc(C(F)(F)F)ccn3)nc(N3CC4CC3CO4)n2)C1 (centres unmarked) [Example 274, [6-(1-Methyl-pyrrolidin-3-yl)-2-(2-oxa-5-aza-bicyclo[2.2.1]hept-5-yl)-pyrimidin-4-yl]-(4-trifluoromethyl-pyridin-2-yl)-amine]	46.3 nM
O=C(C(F)F)N1CCC(c2cc(Nc3cc(C(F)(F)F)ccn3)nc(N3CC4CCC(C3)O4)n2)CC1 [Example 294, 2,2-Difluoro-1{-[2(8-oxa-3-aza-bicyclo[3.2.1]oct-3-yl)-6-(4-trifluoro-methyl-pyridin-2-ylamino)-pyrimidin-4-yl]-piperidin-1-yl}-ethanone]	104 nM
FC(F)(F)c1ccnc(Nc2cc(C3CCOCC3)nc(N3CCCOCC3)n2)c1 [Example 295, [2-[1,4]Oxazepan-4-yl-6-(tetrahydro-pyran-4-yl)-pyrimidin-4-yl]-(4-trifluoromethyl-pyridin-2-yl)-amine]	82.7 nM
FC(F)(F)c1ccnc(Nc2cc(C3CCOCC3)nc(N3CC4CCC(C3)O4)n2)c1 [Example 296, [2-(8-Oxa-3-aza-bicyclo-[3.2.1]oct-3-yl)-6-(tetra-hydro-pyran-4-yl)-pyrimidin-4-yl]-(4-trifluoro-methyl-pyridin-2-yl)-amine]	174 nM
FC1(F)CN(c2nc(Nc3cc(C(F)(F)F)ccn3)cc(C3CCN(CC4CCOCC4)C3)n2)C1 (centres unmarked) [Example 307, {2-(3,3-Difluoro-azetidin-1-yl)-6-[1-(tetrahydro-pyran-4-ylmethyl)-pyrrolidin-3-yl]-pyrimidin-4-yl}-(4-trifluoromethyl-pyridin-2-yl)-amine]	31.9 nM
CN1CCC(c2cc(Nc3cc(C(F)(F)F)ccn3)nc(N3CC(C#N)C3)n2)C1 (centres unmarked) [Example 328, 1-[4-(1-Methyl-pyrrolidin-3-yl)-6-(4-trifluoromethyl-pyridin-2-ylamino)-pyrimidin-2-yl]-azetidine-3-carbonitrile]	147 nM
CN1CCCC(c2cc(Nc3cc(C(F)(F)F)ccn3)nc(N3CC4CCC(C3)O4)n2)C1 (centres unmarked) [Example 329, [6-(1-Methyl-piperidin-3-yl)-2-(8-oxa-3-aza-bicyclo[3.2.1]oct-3-yl)-pyrimidin-4-yl]-(4-trifluoro-methyl-pyridin-2-yl)-amine]	70.1 nM
C[C@@H]1CCCN1c1nc(Nc2cc(C(F)(F)F)ccn2)cc(C2CCN(S(C)(=O)=O)CC2)n1 [Example 330, [6-(1-Methanesulfonyl-piperidin-4-yl)-2-((R)-2-methyl-pyrrolidin-1-yl)-pyrimidin-4-yl]-(4-trifluoromethyl-pyridin-2-yl)-amine]	31.8 nM
C[C@@H]1CCCN1c1nc(Nc2cc(C(F)(F)F)ccn2)cc(-c2ccc(=O)n(C)c2)n1 [Example 331, 1-Methyl-5-[2-((R)-2-methyl-pyrrolidin-1-yl)-6-(4-trifluoromethyl-pyridin-2-ylamino)-pyrimidin-4-yl]-1H-pyridin-2-one]	18.4 nM
CC1CCCN1c1nc(Nc2cc(C(F)(F)F)ccn2)cc(C2CCN(C)C(=O)C2)n1 (centres unmarked) [Example 332, 1-Methyl-4-[2-(2-methyl-pyrrolidin-1-yl)-6-(4-trifluoromethyl-pyridin-2-ylamino)-pyrimidin-4-yl]-piperidin-2-one]	6.12 nM
CCC1CN(c2nc(Nc3cc(C(F)(F)F)ccn3)cc(C3CCN(C)C3)n2)CCO1 (centres unmarked) [Example 348, [2-(2-Ethyl-morpholin-4-yl)-6-(1-methyl-pyrrolidin-3-yl)-pyrimidin-4-yl]-(4-trifluoromethyl-pyridin-2-yl)-amine]	22.6 nM
CC(C)Oc1nc(Nc2cc(C(F)(F)F)ccn2)cc(C2CCOCC2)n1 [Example 350, [2-Isopropoxy-6-(tetrahydro-pyran-4-yl)-pyrimidin-4-yl]-(4-trifluoromethyl-pyridin-2-yl)-amine]	47.5 nM
CC(=O)N1CC(c2cc(Nc3cc(C(F)(F)F)ccn3)nc(C3CC3)n2)C1 [Example 356, 1-{3-[2-Cyclopropyl-6-(4-trifluoromethyl-pyridin-2-ylamino)-pyrimidin-4-yl]-azetidin-1-yl}-ethanone]	101 nM
CN1CCCC(c2cc(Nc3cc(C(F)(F)F)ccn3)nc(N3CC(N4CCOCC4)C3)n2)C1 (centres unmarked) [Example 371, [6-(1-Methyl-piperidin-3-yl)-2-(3-morpholin-4-yl-azetidin-1-yl)-pyrimidin-4-yl]-(4-trifluoromethyl-pyridin-2-yl)-amine]	636 nM
O=C(C(F)F)N1CCC(c2cc(Nc3cc(C(F)(F)F)ccn3)nc(N3CC4CCC(C3)O4)n2)C1 (centres unmarked) [Example 373, 2,2-Difluoro-1-{3-[2-(8-oxa-3-aza-bicyclo[3.2. 1]oct-3-yl)-6-(4-trifluoro-methyl-pyridin-2-ylamino)-pyrimidin-4-yl]-pyrrolidin-1-yl}-ethanone]	173 nM
C[C@@H]1CCCN1c1nc(Nc2cc(C(F)(F)F)ccn2)cc(C2CN(S(C)(=O)=O)C2)n1 [Example 374, [6-(1-Methanesulfonyl-azetidin-3-yl)-2-((R)-2-methyl-pyrrolidin-1-yl)-pyrimidin-4-yl]-(4-trifluoromethyl-pyridin-2-yl)-amine]	30.6 nM
CC(=O)N1CC(c2cc(Nc3cc(C(F)(F)F)ccn3)nc(N3CCC[C@H]3C)n2)C1 [Example 375, 1-{3-[2-((R)-2-Methyl-pyrrolidin-1-yl)-6-(4-trifluoromethyl-pyridin-2-ylamino)-pyrimidin-4-yl]-azetidin-1-yl}-ethanone]	11.1 nM
CC1CCCN1c1nc(Nc2cc(C(F)(F)F)ccn2)cc(C2CCN(C(=O)c3cn(C)cn3)C2)n1 (centres unmarked) [Example 376, (1-Methyl-1H-imidazol-4-yl)-{3-[2-(2-methyl-pyrrolidin-1-yl)-6-(4-trifluoromethyl-pyridin-2-ylamino)-pyrimidin-4-yl]-pyrrolidin-1-yl}-methanone]	1.72 nM
CS(=O)(=O)N1CCCC(c2cc(Nc3cc(C(F)(F)F)ccn3)nc(C3CCCC3)n2)C1 (centres unmarked) [Example 385, [2-Cyclopentyl-6-(1-methanesulfonyl-piperidin-3-yl)-pyrimidin-4-yl]-(4-trifluoromethyl-pyridin-2-yl)-amine]	36.8 nM
Cn1nccc1-c1nc(Nc2cc(C(F)(F)F)ccn2)cc(C2CCN(CC3CCOCC3)C2)n1 (centres unmarked) [Example 388, {2-(2-Methyl-2H-pyrazol-3-yl)-6-[1-(tetrahydro-pyran-4-ylmethyl)-pyrrolidin-3-yl]-pyrimidin-4-yl]-(4-trifluoromethyl-pyridin-2-yl)-amine]	8.75 nM
FC(F)(F)c1ccnc(Nc2cc(C3CCCN(C4COC4)C3)nc(C3CCCC3)n2)c1 (centres unmarked) [Example 391, [2-Cyclopentyl-6-(1-oxetan-3-yl-piperidin-3-yl)-pyrimidin-4-yl]-(4-trifluoromethyl-pyridin-2-yl)-amine]	9 nM
O=C1CC(c2cc(Nc3cc(C(F)(F)F)ccn3)nc(C3CCOC3)n2)CCN1 (centres unmarked) [Example 392, 4-[2-(Tetrahydro-furan-3-yl)-6-(4-trifluoromethyl-pyridin-2-ylamino)-pyrimidin-4-yl]-piperidin-2-one]	120 nM
CC(C)c1nc(Nc2cc(C(F)(F)F)ccn2)cc(C2CN(C3COC3)C2)n1 [Example 399, [2-Isopropyl-6-(1-oxetan 3-yl-azetidin-3-yl)-pyrimidin-4-yl]-(4-trifluoromethyl-pyridin-2-yl)-amine]	281 nM
CS(=O)(=O)N1CCCC(c2cc(Nc3cc(C(F)(F)F)ccn3)nc(C3CCOC3)n2)C1 (centres unmarked) [Example 401, [6-(1-Methanesulfonyl-piperidin-3-yl)-2-(tetrahydro-furan-3-yl)-pyrimidin-4-yl]-(4-trifluoromethyl-pyridin-2-yl)-amine]	122 nM
